Where “and” joins values, the source holds several entries; their conditions need not be identical. Identical values can stand only once. Entries after “also recorded” stand apart in the source; their conditions may differ. Like-named read-outs stand apart in the source and are kept apart here.
Columns and labels:
Chang cells = assay: NadA binding to Chang cells (heparin, competition with non-labelled NadA); design: species or system human; conditions: NadA 600 nM, fluorescence microscopy
Description: Chang and CHO-K1 cells were incubated for 3 h at 37° C. with Alexa^488-labeled NadAΔ351-405 (250 nM) in the presence or the absence of non-labelled NadAΔ351-405 (0, 1, 2.5 or 5 μM), washed and analyzed by FACS; results shown are the relative MFI values ±SE, n=3.
Chang cells were incubated at 37° C. for 3 h with NadA 600 nM and re-incubated 10 min at 37° C. with heparin.

mo-DCs [1] = assay: Alexa-NadAΔ351-405 binding to mo-DCs (flow cytometry, Scatchard analysis); design: species or system human; conditions: Scatchard plot
Description: In some cases, DCs primed or not with IFN-γ were treated at 37° C. for 1 hour with FCS/RPMI containing Bafilomycin A1 200 nM, incubated at 37° C. (in RPMI medium supplemented with 10% FBS and Bafilomycin A1) or 0° C. (in PBS supplemented with 10% FBS) for 3 hours with different concentrations (0.0375-5 μM) of Alexa-NadAΔ351-405 or NadA. Afterward cells were washed and suspended in FACS buffer for FACS analysis. Scatchard plots were constructed from data obtained from cell-associated mean fluorescence intensities due to cell-bound Alexa NadA were measured. The dissociation constant Kd and maximal binding capacities were then determined by Scatchard analyses.

human monocytes [2] = assay: Long-term differentiation of monocytes, surface markers; format: cell-based; conditions: culture up to 7 days
Description: In order to evaluate the possible long-term, differentiation effect of NadA, adherent monocytes were treated with medium alone, NadAΔ351-405 or E. coli LPS and cells were cultured for seven days. At day 4 the agonists were added again to ensure a constant stimulation. Cell morphology was monitored by light microscopy after 1, 2, 3 and 7 days. […] NadAΔ351-405 thus induces both alteration cell morphology and distribution, this is a good indicator of monocyte activation and differentiation.
The long-term, differentiation effect of NadAΔ351-405 on monocytes was further investigated by measuring the expression of the antigen presentation marker MHC-II, co-stimulatory molecules CD80 and CD86 and cell-specific molecules: CD14 (monocyte), CD16 (macrophage) and CD1a (Dendritic cell).

mo-DCs [3] = assay: Cytokine and chemokine secretion by mo-DCs (Bio-Plex, ELISA); format: cell-based, human; conditions: for IL-12 released on co-stimulation with R-848: NadA 1.5 μM + R-848 1 μM
Description: Reagents used were tested for low endotoxin contamination using the Limulus amoebocyte assay (Sigma). Dendritic cells were generated from human peripheral blood mononuclear cells (PBMC) as described previously. In brief, PBMC were isolated from buffy coats of healthy donors by Ficoll-Paque Plus density gradient centrifugation (Amersham Pharmacia Biotech AB). Separate monocyte and T-cell fractions were obtained from PBMCs by Percoll density gradient centrifugation (Amersham Pharmacia Biotech AB). Residual T and B cells were removed from monocyte fraction by plastic adherence of 3×10^6 cells per well in 6-well plates (Costar) resulting in CD14^+ monocyte populations of >95% purity (determined by flow cytometry). DC were obtained by 6-d culture adherent monocytes in medium with 20 ng/ml IL-4 (5×10^6 units/mg, Peprotech) and 50 ng/ml GM-CSF (1×10^7 units/mg, Peprotech). Cytokines were added again on day 4 in RPMI-1640 medium supplemented with 10% FBS. Following this procedure more than 90% cells belonged to the immature DC phenotype (CD1a^+, HLADRlow, CD14^−, CD83^−, CD86^low, CD80^low). On day 5 cells were treated with nothing or with recombinant human IFN-γ (1000 U/ml) for 18 h before stimulation with NadA (0.0375-5 μM) or LPS (1 μg/ml). After 24 h cells were harvested and analysed. Culture supernatants were collected frozen in liquid nitrogen and conserved at −80° C. for cytokine analysis.
The antibody pairs used, directed against different non-competing epitopes of a given cytokine, were purchased from BioRad. Calibration curves from recombinant cytokine standard were prepared with four-fold dilution steps in RPMI-1640 medium containing 10% FBS. Assays were carried out in 96-well sterile pre-wetted filter plates at room temperature and protected from light. A mixture containing 5000 microspheres per cytokine was incubated together with standard or sample in a final volume of 50 μl for 30 min, under continuous shaking (300 rpm). After three washes by vacuum filtration with Bio-Plex washing buffer a cocktail of biotinylated antibodies diluted in Bio-Plex detection antibody diluent was added (25 μl to each well). After a 30 minutes incubation and washing, Streptavidin-PE diluted in Bio-Plex Assay buffer was added (50 μl per well). At the end of 10 minutes incubation under continuous shaking and after washing the fluorescence intensity of the beads was measured in a final volume of 125 μl of Bio-Plex assay buffer. Data analysis was done with Bio-Plex Manager software using a five-parametric-curve fitting. The detection limits were […].
IL12(p40) was measured by capture enzyme-linked immunosorbent assay (ELISA) with antibody pairs and cytokine standard purchased from Bender MedSystems. The concentrations of IL12(p40) in the cell-free supernatants were determined with ELISA kits according to the manufacturer's instructions. The detection limit of the assays was […].

human monocytes [4] = assay: Soluble mediator secretion by monocytes after 3 and 7 culture days, re-stimulated with LPS; format: cell-based
Description: The secretion of the main immune mediators by human monocytes, after 3 and 7 culture days following stimulation with NadAΔ351-405 or LPS, was tested with a Bioplex immune array after 24 hours incubation with LPS. Analysis was performed to test pro-inflammatory cytokine TNFα and IL6, regulatory cytokine IL-10 and IL-12(p70) and chemokine IL-8, MCP-1, MIP1-α, RANTES and […] secretion.

[5] = after IFN-γ priming, 24 hours, NadAΔ351-405 1 μM

NadAΔ351-405 was tested, and the “protein binding to Chang cells in the presence of heparin” value (Chang cells) was “dose-dependent reduction”, the Kd (mo-DCs [1]; read-out: Kd1, high affinity binding sites) was 50 to 100 nM and 90 nM and the Kd (mo-DCs [1]; read-out: Kd2, low affinity binding sites) was 3000 to 5000 nM and 4000 nM. The CD1a expression (human monocytes [2]) was “not increased”, the CD14 expression (human monocytes [2]) was “steadily increased on days two and three” and the CD16 expression (human monocytes [2]) was “increased more intensely than in the control cells in the first three days”. The CD80 expression (human monocytes [2]) was “not over-expressed”, the CD86 expression (human monocytes [2]) was “increased more intensely than in the control cells in the first three days” and the HLA-DR surface expression (human monocytes [2]) was “reached a maximal expression level on day three”. For the same substance, the “IL-12 released on co-stimulation with R-848” value (mo-DCs [3]; after IFN-γ priming) was 45 ng/mL, the “IL-12 released on co-stimulation with R-848” value (mo-DCs [3]; no IFN-γ priming) was 2 ng/mL and the “increase of IL-12 release by IFN-γ priming” value (mo-DCs [3]; NadA + R-848) was 20 fold. For the same substance, the “IL-12p70 secretion, dose response” value (mo-DCs [3]; absence of IFN-γ priming, up to 5 μM NadA) was “undetected”, the “IL12-p40 maximal secretion relative to LPS” value (mo-DCs [3]; after IFN-γ priming) was ~2% and the “IL-12p70 secretion level relative to LPS” value (mo-DCs [3]; after IFN-γ priming) was < 2%. The “IL-12p70 secretion, dose response” value (mo-DCs [3]; after IFN-γ priming) was “reached a plateau below 1 μM NadA”, the “IL-6 production relative to maximal LPS production” value (mo-DCs [3]; [5]) was ~24% and the “TNFα production relative to maximal LPS production” value (mo-DCs [3]; [5]) was ~24%. The “NadA concentration at which IL-6, TNFα and IL-8 were evident” value (mo-DCs [3]; non-primed cells) was “higher than 1 μM”, the “IL-8 secretion relative to that induced by LPS” value (mo-DCs [3]; with and without IFN-γ priming) was ~24% and the IL-10 production (mo-DCs [3]; with or without IFN-γ priming, up to 5 μM NadA) was “Under no condition in this example was NadA able to induce IL-10 production; also recorded: undetectable”. The IL-6 production (human monocytes [4]; after 3 days of culture, re-stimulated with LPS) was “greater production of IL-6 compared to LPS-treated cells” and the IL-10 production (human monocytes [4]; cultured cells re-stimulated with LPS) was “able to induce IL-10 production”.

Reference: US20110008279A1, “Methods and Compositions Relating to Adhesins as Adjuvants” (priority 2005, published 2011)
